Experimental data taken from ChEMBL document CHEMBL1145099, “Aloisines, a new family of CDK/GSK-3 inhibitors. SAR study, crystal structure in complex with CDK2, enzyme selectivity, and cellular effects” (J Med Chem, 2003).

Molecular target: Glycogen synthase kinase-3 beta (Homo sapiens, UniProt P49841)
Experiment: Inhibition of glycogen synthase kinase-3 beta, purified from porcine brain or expressed in and purified from insect Sf9 cells
Assay type: cell-based, Sus scrofa

Glycogen synthase kinase-3 beta, sequence (P49841 whole entry): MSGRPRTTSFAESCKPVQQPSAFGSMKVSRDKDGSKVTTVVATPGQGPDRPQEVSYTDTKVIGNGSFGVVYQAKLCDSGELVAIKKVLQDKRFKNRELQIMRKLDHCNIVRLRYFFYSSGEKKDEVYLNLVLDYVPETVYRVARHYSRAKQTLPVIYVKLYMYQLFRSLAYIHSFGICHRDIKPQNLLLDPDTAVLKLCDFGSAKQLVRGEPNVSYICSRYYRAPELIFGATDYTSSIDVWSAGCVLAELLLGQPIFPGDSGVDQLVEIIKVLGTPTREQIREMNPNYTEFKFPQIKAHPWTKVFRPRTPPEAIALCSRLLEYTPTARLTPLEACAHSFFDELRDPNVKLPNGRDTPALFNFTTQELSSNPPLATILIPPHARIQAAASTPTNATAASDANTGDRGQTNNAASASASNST

IC50 [nM] | Structure (SMILES)
4800 | N#Cc1ccc(-c2cc3[nH]ccnc-3n2)cc1
520 | Cc1c(-c2ccc(O)cc2)[nH]c2nccnc12
85000 | COc1cc(-c2cc3[nH]ccnc-3n2)cc(OC)c1OC
1200 | c1csc(-c2cc3[nH]ccnc-3n2)c1
1000 | c1ccc(Cc2c(-c3ccccc3)[nH]c3nccnc23)cc1
60000 | COc1cc(OC)cc(-c2cc3[nH]ccnc-3n2)c1
2000 | COc1ccc(-c2[nH]c3nccnc3c2C)cc1OC
15000 | c1coc(-c2cc3[nH]ccnc-3n2)c1
15000 | c1ccc(-c2cc3[nH]ccnc-3n2)nc1
12000 | CN(C)c1ccc(-c2cc3[nH]ccnc-3n2)cc1
460 | COc1ccc(-c2[nH]c3nccnc3c2C)cc1
> 10000 | CCCCCCCc1c(-c2ccc(OC)cc2)[nH]c2nccnc12
27000 | c1ccc2c(-c3cc4[nH]ccnc-4n3)cccc2c1
750 | CC(C)c1c(-c2ccc(Cl)cc2)[nH]c2nccnc12
2600 | Cc1ccc(-c2cc3[nH]ccnc-3n2)cc1
18000 | Cc1c(C2(c3ccc(Cl)cc3)CC2)[nH]c2nccnc12
2300 | c1ccc(-c2cc3[nH]ccnc-3n2)cc1
5900 | CCCCc1c(-c2ccc(Cl)cc2)[nH]c2nccnc12
3300 | COc1ccccc1-c1cc2[nH]ccnc-2n1
800 | c1c[nH]c2cc(-c3ccsc3)nc-2n1
6500 | Oc1ccccc1-c1cc2[nH]ccnc-2n1

IC50 [nM] | Structure (SMILES)
1100 | COc1ccc(-c2cc3[nH]ccnc-3n2)cc1
400 | CCCc1c(-c2ccc(OC)cc2)[nH]c2nccnc12
> 100000 | c1ccc(-c2cc3[nH]c4ccccc4nc-3n2)cc1
> 100000 | Cn1c(-c2ccccc2)cc2nccnc21
600 | C=CCc1c(-c2ccc(OC)cc2)[nH]c2nccnc12
6000 | Brc1ccc(-c2cc3[nH]ccnc-3n2)cc1
1900 | Fc1ccc(-c2cc3[nH]ccnc-3n2)cc1
20000 | c1c[nH]c2cc(-c3ccc(C4OCCO4)cc3)nc-2n1
1700 | Cc1c(-c2ccc(Cl)cc2)[nH]c2nccnc12
920 | CCCCc1c(-c2ccc(OC)cc2)[nH]c2nccnc12 [ALOISINE]
6800 | Clc1ccc(-c2[nH]c3nccnc3c2Cc2ccccc2)cc1
1200 | Oc1ccc(-c2cc3[nH]ccnc-3n2)cc1
7200 | FC(F)(F)c1ccc(-c2cc3[nH]ccnc-3n2)cc1
2500 | COc1ccc(-c2[nH]c3nccnc3c2CCCCl)cc1
1800 | CCCc1c(-c2ccc(O)cc2)[nH]c2nccnc12
> 100000 | Clc1cc(Cl)cc(-c2cc3[nH]ccnc-3n2)c1
> 100000 | Cc1c[nH]c2cc(-c3ccccc3)nc-2n1
3200 | COc1cccc(-c2cc3[nH]ccnc-3n2)c1
500 | COc1ccc(-c2[nH]c3nccnc3c2C(C)C)cc1
1000 | Clc1ccc(C2(c3cc4[nH]ccnc-4n3)CC2)cc1

Structure (SMILES) | IC50 [nM]
Oc1ccc(-c2[nH]c3nccnc3c2CC2CC2)cc1 | 3000
Cc1c(-c2ccc(OS(=O)(=O)N(C)C)cc2)[nH]c2nccnc12 | 500
COc1ccc(-c2[nH]c3nccnc3c2CC2CCCCC2)cc1 | 6800
Clc1ccc(-c2[nH]c3nccnc3c2CC2CCCCC2)cc1 | 8000
COc1ccc(-c2[nH]c3nccnc3c2CC2CC2)cc1 | 1100

Molecular target: CDK1/cyclin B (Marthasterias glacialis)

IC50 [µM] | Structure (SMILES)
3 | N#Cc1ccc(-c2cc3[nH]ccnc-3n2)cc1
0.25 | Cc1c(-c2ccc(O)cc2)[nH]c2nccnc12
100 | COc1cc(-c2cc3[nH]ccnc-3n2)cc(OC)c1OC
7 | c1csc(-c2cc3[nH]ccnc-3n2)c1
2 | c1ccc(Cc2c(-c3ccccc3)[nH]c3nccnc23)cc1
100 | COc1cc(OC)cc(-c2cc3[nH]ccnc-3n2)c1
1.1 | COc1ccc(-c2[nH]c3nccnc3c2C)cc1OC
12 | c1coc(-c2cc3[nH]ccnc-3n2)c1
21 | c1ccc(-c2cc3[nH]ccnc-3n2)nc1
20 | CN(C)c1ccc(-c2cc3[nH]ccnc-3n2)cc1
0.3 | COc1ccc(-c2[nH]c3nccnc3c2C)cc1
7 | CCCCCCCc1c(-c2ccc(OC)cc2)[nH]c2nccnc12
> 100 | c1ccc2c(-c3cc4[nH]ccnc-4n3)cccc2c1
0.85 | CC(C)c1c(-c2ccc(Cl)cc2)[nH]c2nccnc12
3 | Cc1ccc(-c2cc3[nH]ccnc-3n2)cc1
1.8 | Clc1ccc(-c2cc3[nH]ccnc-3n2)cc1
5 | c1ccc(-c2cc3[nH]ccnc-3n2)cc1
0.2 | CCCCc1c(-c2ccc(Cl)cc2)[nH]c2nccnc12
20 | COc1ccccc1-c1cc2[nH]ccnc-2n1

IC50 [µM] | Structure (SMILES)
2.3 | c1c[nH]c2cc(-c3ccsc3)nc-2n1
2.5 | Oc1ccccc1-c1cc2[nH]ccnc-2n1
2 | COc1ccc(-c2cc3[nH]ccnc-3n2)cc1
0.4 | CCCc1c(-c2ccc(OC)cc2)[nH]c2nccnc12
> 100 | c1ccc(-c2cc3[nH]c4ccccc4nc-3n2)cc1
100 | Cn1c(-c2ccccc2)cc2nccnc21
1 | C=CCc1c(-c2ccc(OC)cc2)[nH]c2nccnc12
2.5 | Oc1cccc(-c2cc3[nH]ccnc-3n2)c1
2.3 | Fc1ccc(-c2cc3[nH]ccnc-3n2)cc1
8 | c1c[nH]c2cc(-c3ccc(C4OCCO4)cc3)nc-2n1
60 | COc1ccc(-c2cc3ccc[nH]c-3n2)cc1
1.2 | Oc1ccc(-c2cc3[nH]ccnc-3n2)cc1
6 | FC(F)(F)c1ccc(-c2cc3[nH]ccnc-3n2)cc1
25 | CCCc1c(-c2ccc(O)cc2)[nH]c2nccnc12
> 100 | Clc1cc(Cl)cc(-c2cc3[nH]ccnc-3n2)c1
69 | Cc1c[nH]c2cc(-c3ccccc3)nc-2n1
13 | COc1cccc(-c2cc3[nH]ccnc-3n2)c1
30 | Clc1ccc(C2(c3cc4[nH]ccnc-4n3)CC2)cc1

Structure (SMILES) | IC50 [µM]
Oc1ccc(-c2[nH]c3nccnc3c2CC2CC2)cc1 | 50
Cc1c(-c2ccc(OS(=O)(=O)N(C)C)cc2)[nH]c2nccnc12 | 0.7
COc1ccc(-c2[nH]c3nccnc3c2CC2CCCCC2)cc1 | 5
Clc1ccc(-c2[nH]c3nccnc3c2CC2CCCCC2)cc1 | 10
COc1ccc(-c2[nH]c3nccnc3c2CC2CC2)cc1 | 1

Molecular target: Cyclin-dependent kinase 5/CDK5 activator 1 (Homo sapiens, UniProt Q00535)
Sequence (Q00535 whole entry): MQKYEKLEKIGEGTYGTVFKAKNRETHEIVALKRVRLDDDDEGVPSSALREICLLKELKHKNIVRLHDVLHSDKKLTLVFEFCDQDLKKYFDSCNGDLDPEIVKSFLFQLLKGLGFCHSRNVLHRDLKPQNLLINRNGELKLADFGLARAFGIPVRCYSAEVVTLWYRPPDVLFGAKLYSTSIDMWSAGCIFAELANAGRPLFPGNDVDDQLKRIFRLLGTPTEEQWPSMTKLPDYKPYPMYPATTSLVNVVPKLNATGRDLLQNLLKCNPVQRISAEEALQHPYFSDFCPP
Sequence (Q15078 whole entry, further chain): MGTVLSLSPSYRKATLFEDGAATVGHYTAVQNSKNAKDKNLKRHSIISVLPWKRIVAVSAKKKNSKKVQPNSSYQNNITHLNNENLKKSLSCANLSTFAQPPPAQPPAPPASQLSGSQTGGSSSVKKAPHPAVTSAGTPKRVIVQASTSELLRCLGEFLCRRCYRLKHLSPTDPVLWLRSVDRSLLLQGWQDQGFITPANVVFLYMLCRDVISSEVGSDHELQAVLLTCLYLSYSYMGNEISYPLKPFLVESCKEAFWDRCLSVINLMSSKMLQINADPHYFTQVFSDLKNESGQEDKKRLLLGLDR
Experiment: Inhibitory activity against recombinant mammalian cyclin-dependent kinase 5 (p35 NCK5a) expressed in Escherichia coli

IC50 [µM] | Structure (SMILES)
13 | N#Cc1ccc(-c2cc3[nH]ccnc-3n2)cc1
0.2 | Cc1c(-c2ccc(O)cc2)[nH]c2nccnc12
> 100 | COc1cc(-c2cc3[nH]ccnc-3n2)cc(OC)c1OC
2 | c1csc(-c2cc3[nH]ccnc-3n2)c1
> 100 | c1ccc(Cc2c(-c3ccccc3)[nH]c3nccnc23)cc1
> 100 | COc1cc(OC)cc(-c2cc3[nH]ccnc-3n2)c1
1 | COc1ccc(-c2[nH]c3nccnc3c2C)cc1OC
9.3 | c1coc(-c2cc3[nH]ccnc-3n2)c1
53 | c1ccc(-c2cc3[nH]ccnc-3n2)nc1
> 100 | CN(C)c1ccc(-c2cc3[nH]ccnc-3n2)cc1
0.8 | COc1ccc(-c2[nH]c3nccnc3c2C)cc1
> 100 | CCCCCCCc1c(-c2ccc(OC)cc2)[nH]c2nccnc12
80 | c1ccc2c(-c3cc4[nH]ccnc-4n3)cccc2c1
13 | CC(C)c1c(-c2ccc(Cl)cc2)[nH]c2nccnc12
10 | Cc1ccc(-c2cc3[nH]ccnc-3n2)cc1
100 | Cc1c(C2(c3ccc(Cl)cc3)CC2)[nH]c2nccnc12
4 | c1ccc(-c2cc3[nH]ccnc-3n2)cc1
> 100 | CCCCc1c(-c2ccc(Cl)cc2)[nH]c2nccnc12
23 | COc1ccccc1-c1cc2[nH]ccnc-2n1
1 | c1c[nH]c2cc(-c3ccsc3)nc-2n1

IC50 [µM] | Structure (SMILES)
3 | Oc1ccccc1-c1cc2[nH]ccnc-2n1
4 | COc1ccc(-c2cc3[nH]ccnc-3n2)cc1
0.5 | CCCc1c(-c2ccc(OC)cc2)[nH]c2nccnc12
> 100 | c1ccc(-c2cc3[nH]c4ccccc4nc-3n2)cc1
2 | C=CCc1c(-c2ccc(OC)cc2)[nH]c2nccnc12
> 100 | Brc1ccc(-c2cc3[nH]ccnc-3n2)cc1
1 | Fc1ccc(-c2cc3[nH]ccnc-3n2)cc1
15 | c1c[nH]c2cc(-c3ccc(C4OCCO4)cc3)nc-2n1
5 | Cc1c(-c2ccc(Cl)cc2)[nH]c2nccnc12
1.5 | CCCCc1c(-c2ccc(OC)cc2)[nH]c2nccnc12 [ALOISINE]
> 100 | Clc1ccc(-c2[nH]c3nccnc3c2Cc2ccccc2)cc1
1 | Oc1ccc(-c2cc3[nH]ccnc-3n2)cc1
> 100 | FC(F)(F)c1ccc(-c2cc3[nH]ccnc-3n2)cc1
3 | COc1ccc(-c2[nH]c3nccnc3c2CCCCl)cc1
1.2 | CCCc1c(-c2ccc(O)cc2)[nH]c2nccnc12
> 100 | Clc1cc(Cl)cc(-c2cc3[nH]ccnc-3n2)c1
100 | Cc1c[nH]c2cc(-c3ccccc3)nc-2n1
10 | COc1cccc(-c2cc3[nH]ccnc-3n2)c1
2 | COc1ccc(-c2[nH]c3nccnc3c2C(C)C)cc1
100 | Clc1ccc(C2(c3cc4[nH]ccnc-4n3)CC2)cc1

Structure (SMILES) | IC50 [µM]
Oc1ccc(-c2[nH]c3nccnc3c2CC2CC2)cc1 | > 100
Cc1c(-c2ccc(OS(=O)(=O)N(C)C)cc2)[nH]c2nccnc12 | 0.9
COc1ccc(-c2[nH]c3nccnc3c2CC2CCCCC2)cc1 | > 100
Clc1ccc(-c2[nH]c3nccnc3c2CC2CCCCC2)cc1 | > 100
COc1ccc(-c2[nH]c3nccnc3c2CC2CC2)cc1 | > 100
